From patent US20260028423A1, “PREDICTION OF AN INCREASE OF DPP3 IN A PATIENT WITH SEPTIC SHOCK” (4TEEN4 Pharmaceuticals GmbH, priority 2022, published 2026) come the findings set out here.

“Also recorded” adds a separate entry of the source.

In assay [1] the target is T1, Recombinant GST-tagged hDPP3 (Homo sapiens, UniProt Q9NY33).
T1 construct: purchased USBio (United States Biological, Salem, MA, USA)
T1 sequence (Q9NY33 1-737): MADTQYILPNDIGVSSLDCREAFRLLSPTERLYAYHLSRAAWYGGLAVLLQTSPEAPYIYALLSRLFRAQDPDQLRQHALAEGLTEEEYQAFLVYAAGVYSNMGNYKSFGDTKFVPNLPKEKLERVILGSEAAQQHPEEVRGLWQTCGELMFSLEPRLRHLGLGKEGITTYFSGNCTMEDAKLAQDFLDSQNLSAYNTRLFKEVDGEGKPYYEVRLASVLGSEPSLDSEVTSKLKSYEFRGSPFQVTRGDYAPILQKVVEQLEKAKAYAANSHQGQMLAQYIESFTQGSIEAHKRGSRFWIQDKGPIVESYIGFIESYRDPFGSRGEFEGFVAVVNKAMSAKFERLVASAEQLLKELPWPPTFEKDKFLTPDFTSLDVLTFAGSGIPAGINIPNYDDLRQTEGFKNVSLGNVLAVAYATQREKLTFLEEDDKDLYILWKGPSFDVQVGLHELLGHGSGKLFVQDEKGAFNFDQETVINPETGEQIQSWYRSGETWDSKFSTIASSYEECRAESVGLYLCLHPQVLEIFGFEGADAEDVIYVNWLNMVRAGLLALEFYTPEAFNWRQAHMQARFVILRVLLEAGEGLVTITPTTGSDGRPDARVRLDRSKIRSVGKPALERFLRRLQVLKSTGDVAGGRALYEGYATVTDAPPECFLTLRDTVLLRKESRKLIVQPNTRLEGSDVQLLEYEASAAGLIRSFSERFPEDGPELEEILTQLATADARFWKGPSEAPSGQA
The experiment in a line: hDPP3 binding assay (labelled antibody, immobilized antigen, RLU). Particulars: immobilized GST-hDPP3 1 μg/well. How it is done: To analyze the capability of DPP3/immunization peptide binding by the different antibodies and antibody clones a binding assay was performed:
Solid phase: Recombinant GST-tagged hDPP3 (SEQ ID NO. 36) or a DPP3 peptide (immunization peptide, SEQ ID NO. 37) was immobilized onto a high binding microtiter plate surface (96-Well polystyrene microplates, Greiner Bio-One international AG, Austria, 1 μg/well in coupling buffer [50 mM Tris, 100 mM NaCl, pH7,8], 1 h at RT). After blocking with 5% bovine serum albumin, the microplates were vacuum dried.
Labelling procedure (tracer): 100 μg (100 μl) of the different antiDPP3 antibodies (detection antibody, 1 mg/ml in PBS, pH 7.4) were mixed with 10 μl acridinium NHS-ester (1 mg/ml in acetonitrile, InVent GmbH, Germany; EP 0 353 971) and incubated for 30 min at room temperature. […] The final concentration was approx. 5-7*10^6 relative light units (RLU) of labelled compound (approx. 20 ng labelled antibody) per 200 μl. acridinium ester chemiluminescence was measured by using a Centro LB 960 luminometer (Berthold Technologies GmbH & Co. KG).
hDPP3 binding assay: the plates were filled with 200 μl of labelled and diluted detection antibody (tracer) and incubated for 2-4 h at 2-8° C. […] Well-bound chemiluminescence was measured by using the Centro LB 960 luminometer (Berthold Technologies GmbH & Co. KG).

Assay [2] deals with Male Wistar rats. The assay can be described thus: CLP model of septic shock, sepsis-induced heart failure rats. Type of assay: in vivo, rat. Particulars: vs CLP+PBS. How it is done: Male Wistar rats (2-3 months, 300 to 400 g, group size refers to table 9) from the Centre d'élevage Janvier (France) were allocated randomly to one of three groups. All the animals were anesthetized using ketamine hydrochloride (90 mg/kg) and xylazine (9 mg/kg) intraperitoneally (i.p.). For induction of polymicrobial sepsis, cecal ligation and puncture (CLP) was performed using Rittirsch's protocol with minor modification. A ventral midline incision (1.5 cm) was made to allow exteriorization of the cecum. The cecum is then ligated just below the ileocecal valve and punctured once with an 18-gauge needle. The abdominal cavity is then closed in two layers, followed by fluid resuscitation (3 ml/100 g body of weight of saline injected subcutaneously) and returning the animal to its cage. Sham animals were subjected to surgery, without getting their cecum punctured. CLP animals were randomized between placebo and therapeutic antibody.
The study flow is depicted in FIG. 8. After CLP or sham surgery the animals were allowed to rest for 20 hours with free access to water and food. […] As a safety measure, hemodynamics were monitored invasively and continuously from t=0 till 3 h. […]
Grey scale images were recorded at a depth of 2 cm. […] LVFS was calculated as LV end-diastolic diameter−LV end-systolic diameter/LV end-diastolic diameter and expressed in %. […] All parameters were measured manually. […]

Assay [3] concerns isoproterenol-induced heart failure mice. The experiment in a line: Isoproterenol-induced heart failure in mice. To be noted: 10 mg/kg i.v.; within the first hour after administration. Type of assay: in vivo, mouse. How it is done:
Acute heart failure was induced in male mice at 3 months of age by two daily subcutaneous injections of 300 mg/kg of Isoproterenol, a non-selective β-adrenergic agonist (DL-Isoproterenol hydrochloride, Sigma Chemical Co) (ISO) for two days (Vergaro et al, 2016). The ISO dilution was performed in NaCl 0.9%. Isoproterenol-treated mice were randomly assigned to two groups (Table 10) and PBS or Procizumab (10 mg/kg) were injected intravenously after baseline echocardiography (Gao et al., 2011) and renal resistive index measurements (Lubas et al., 2014, Dewitte et al, 2012) were performed at day 3 (FIGS. 11 A and B). Cardiac function was assessed by echocardiography (Gao et al., 2011) and by the renal resistive index (Lubas et al., 2014, Dewitte et al, 2012) at 1 hour, 6 hours and 24 hours (FIGS. 11 A and B). The group of mice that was injected with vehicle (PBS) instead of isoproterenol was subjected to no further pharmacological treatment and served as the control group (Table 10).

On to “Clone 1967: anti-DPP3 monoclonal antibody, clone 1967 of SEQ ID No.: 37 (AK1967; Procizumab); humanized chains SEQ ID No. 47 and 48”, for which the “hDPP3 binding [RLU]” value in assay [1] is recorded as 113.736 RLU. For the same substance, in assay [2], the mortality rate entry was “drastically improves; also recorded: drastically reduces” and the shortening fraction entry was “instant normalization; also recorded: drastically improves”. Besides, in assay [3], the “heart function (shortening fraction)” value is reported as “improved; also recorded: restores heart function”.
